This is an account of results in patent US9585387B1, “PEHAM dendrimers for use in agriculture” (Starpharma Pty Ltd, priority 2009, dated 2017).

What is called solubility is how much of the substance goes into solution per volume.

The nature of one data set: physchem. The format is physicochemical. The conditions noted are these: water; at pH 7; trifluralin control without dendrimer; read-out: Solubility assessment by GC assay.
For data set [1], the system named is Avena sativa (cv. Echidna). The experiment in a line: Brownout of oat seedlings after track-sprayer application (Example 21). The format is in vivo. The conditions noted are these: concentrations of 0.1% v/v and above; with GrowChoice 450 g/L glyphosate. On the procedure: The experiment tested whether the addition of dendrimers at various concentrations increased penetration into plant tissue and thus improved the rate of kill utilizing the herbicide glyphosate IPA (GrowChoice® 450 g/L present as the isopropylamine salt). Oats were selected for assessment of glyphosate efficacy because there is less genetic variation. All dosing was carried out at sublethal doses in order to witness a dose effect which is enhanced with dendrimer. A standard dose in the positive control would result in death of the oats and would be presumably replicated in the dendrimer treatments.
Avena sativa (cv. Echidna) was sown in 10 cm diameter pots filled with potting mix (AS 3743). Enough seeds were planted to ensure a minimum of seven seedlings per treatment group. Seeds were germinated in a temperature-controlled greenhouse (14° C.-25° C.) for 7 days. […]
The herbicide, glyphosate IPA (GrowChoice® 450 g/L present as the isopropylamine salt), was applied using an enclosed laboratory track-sprayer fitted with three 110° flat fan nozzles (Teejet XR11001-VS) spaced at 50 cm intervals across the boom. […] A total of 5 concentrations of the Example 2 G1-OH dendrimer (0.01, 0.05, 0.1, 0.2 & 0.5% v/v) were evaluated for enhancement of herbicidal effect at each of the rates of glyphosate tested (35, 70, 140 & 280 g ai/ha).
After 10 days the treated plants were assessed for % brownout. […]

A short description of data set [2]: Solubility of active constituents in dendrimer solutions by HPLC (Example 26). The format is physicochemical. On the procedure: Four PEHAM dendrimers, each at 10 g/L and 100 g/L in water, were used for evaluation. A 15 g of each dendrimer was dissolved in distilled water and made accurately to 150 mL volume. Determination of pH was then made using a calibrated pH meter and electrode.
To prepare saturated solutions of active constituent in 100 g/L dendrimer solutions, 10 mL of each 100 g/L dendrimer solution was placed into a 50 mL test tube and 0.2 g of active constituent was then also added. The test tube was then briefly shaken to disperse the contents, before being placed in an ultrasonic water bath, and subjected to sonication for 30 mins at […] The test tube and contents were then cooled to […] and then a 2.0 mL aliquot was taken and filtered through a 0.45 μm PTFE membrane filter.
To prepare saturated solutions of active constituent in 10 g/L dendrimer solutions, 1.0 mL of each 100 g/L dendrimer solution was placed into a 50 mL test tube and a 9.0 mL aliquot of distilled water added and 0.2 g of active constituent was then also added. The test tube was then briefly shaken to disperse the contents, before being placed in an ultrasonic water bath, and subjected to sonication for 30 mins at […] The test tube and contents were then cooled to […] and then a 2.0 mL aliquot was taken and filtered through a 0.45 μm PTFE membrane filter
Each prepared and filtered solution was examined in a light box for Tyndall Scattering (light scattering by particles in a colloid or particles in a fine suspension). A visual observation was made and recorded for each solution. Ten active constituents that were selected to cover a range of water solubility were treated according to the method described here. A total of 200 filtered solutions were prepared.
High Performance Liquid Chromatography was used to analyse each active constituent in each dendrimer solution. Each saturated active constituent solution was freshly prepared for immediate analysis or frozen at <−15° C. where analysis could not take place within 2 hours of preparation. The following are details of the HPLC equipment used. For each active constituent a set of 4 calibration solutions was prepared 0 to 25 ppm. A sequence of injections comparing the peak area of the calibration solutions and the dendrimer solutions was then undertaken. The dendrimer solutions were diluted as required to maintain their respective peak area response within the calibration range. The active constituent concentration (ppm) in the dendrimer solution was determined by calculation: RF×SA×DF, where RF=Response Factor (concentration of calibration solution per unit of peak area, SA=Sample Peak Area (peak area of the sample solution), and DF=Dilution Factor (dilution of the sample solution). HPLC conditions were varied to ensure the optimum detection and separation of each active constituent from excipients.

≈ marks a conversion by molar mass, not a printed value.

Method for physchem: To a 10% w/w solution of agrochemical active dissolved in a suitable volatile organic solvent, (e.g., MeOH, DCM, EtOH, acetone or other appropriate solvent) was added a 10% w/w solution of dendrimer in either water or the same organic solvent as above. The mixture was left to stir for 2-4 h after which time the volatile organic solvent was then removed under reduced pressure to provide a 1:1 mixture of the active and dendrimer. This oily solution was then dissolved in water and filtered. Analysis of active content in the aqueous solution by HPLC or GC assay provided an estimate of the solubility increase due to the addition of the dendrimer.

For the compound `CCCN(CCC)c1c([N+](=O)[O-])cc(C(F)(F)F)cc1[N+](=O)[O-]` [trifluralin], the solubility in “physchem” is 0.22 µg/mL (≈ 0.656 µM).
Turning to `CCC(COCC(O)CN(CCO)CCO)(COCC(O)CN(CCO)CCO)COCC(O)CN(CCO)CCO` (stereo not shown) [Example 2, [(C)=TMPTGE; (FF)=Et; (IF1)=OH; (BR1)=DEA; (TF)=OH; G=1]], the “rate of brownout” value in data set [1] was “did enhance the rate of brownout”. Further, the “Ratio of Active Ingredient in Dendrimer Solution (ppm) to Active Ingredient in Water (ppm)” value (“Ratio of Active Ingredient” for short) in data set [2] (6-BAP, 10 g/L loading) amounted to 4; in data set [2] (6-BAP, 100 g/L loading), 967; in data set [2] (Bifenthrin, 10 g/L loading), 1; in data set [2] (Bifenthrin, 100 g/L loading) it was 1; in data set [2] (Clomazone, 10 g/L loading), 1; in data set [2] (Clomazone, 100 g/L loading) it was 1. Besides, the “Ratio of Active Ingredient” value amounted to 2 in data set [2] (Flumetsulam, 10 g/L loading); 4 in data set [2] (Flumetsulam, 100 g/L loading); 2 in data set [2] (Mcylobutanil, 10 g/L loading); 4 in data set [2] (Mcylobutanil, 100 g/L loading); 2 in data set [2] (Penconazole, 10 g/L loading); 43 in data set [2] (Penconazole, 100 g/L loading). The “Ratio of Active Ingredient” value in data set [2] (Pendimethalin, 10 g/L loading) is given as 1; in data set [2] (Pendimethalin, 100 g/L loading), 6; in data set [2] (Propaquizafop, 10 g/L loading), 1; in data set [2] (Propaquizafop, 100 g/L loading), 1; in data set [2] (Thiamethoxam, 10 g/L loading), 2; in data set [2] (Thiamethoxam, 100 g/L loading), 2. Also, the “Ratio of Active Ingredient” value was 7 in data set [2] (Thidiazuron, 10 g/L loading) and 39 in data set [2] (Thidiazuron, 100 g/L loading).
